Assay results taken from patent US20200123137A1, “DEUTERATED CFTR MODULATORS AND METHODS OF USE” (ABBVIE S.À.R.L., priority 2016, published 2020).

Key:
F508delCFTR = F508delCFTR (Homo sapiens, UniProt P13569, DEL508-508); assay: Cell Surface Expression-Horse Radish Peroxidase (CSE-HRP) assay; format: cell-based; conditions: CFBE41o-F508delCFTR-HRP cells
Procedure: A cellular assay for measuring the F508delCFTR cell surface expression after correction with test compounds was developed in human lung derived epithelial cell line (CFBE41o-) (Veit G et al, (2012) Mol Biol Cell. 23(21): 4188-4202). This was achieved by expressing the F508delCFTR mutation along with a horseradish peroxidase (HRP) in the fourth exofacial loop and then measuring the HRP activity using luminescence readout from these cells, CFBE41o-F508delCFTR-HRP, that were incubated overnight with the test corrector compounds. […] Post incubation, the plates were washed 5 x times with Dulbecco's phosphate buffered saline (DPBS), followed by the addition of the HRP substrate, luminol (50 μL), and measuring the HRP activity using luminescence readout on EnVision® Multilabel Plate Reader (Perkin Elmer; product number 2104-0010). The raw counts from the experiment are analyzed using Accelrys® Assay Explorer v3.3. […]
The % activity measured at each of the 8 test concentrations of the test compound was normalized to the on-plate positive control using the following formula: […]
The maximum % activity achieved for the test compound at any tested concentration is presented in Table 1 along with the EC50 calculated using the following general sigmoidal curve with variable Hill slope equation (described as Model 42 in the Accelrys® Assay Explorer v3.3 software): […]

F508del/F508del CFTR = target: T1, F508del/F508del CFTR (Homo sapiens, UniProt P13569, DEL508-508); assay: Transepithelial Clamp Circuit (TECC-24) conductance assay on primary human bronchial epithelial cells; format: cell-based; conditions: primary hBE cells F508del/F508del
T1 construct: cells isolated from CF patients with the homozygous mutation; endogenous in cells; host or cells: primary human bronchial epithelial (hBE) cells from F508del/F508del CF patients
T1 sequence (P13569 with tags, fused parts or gaps DEL508-508): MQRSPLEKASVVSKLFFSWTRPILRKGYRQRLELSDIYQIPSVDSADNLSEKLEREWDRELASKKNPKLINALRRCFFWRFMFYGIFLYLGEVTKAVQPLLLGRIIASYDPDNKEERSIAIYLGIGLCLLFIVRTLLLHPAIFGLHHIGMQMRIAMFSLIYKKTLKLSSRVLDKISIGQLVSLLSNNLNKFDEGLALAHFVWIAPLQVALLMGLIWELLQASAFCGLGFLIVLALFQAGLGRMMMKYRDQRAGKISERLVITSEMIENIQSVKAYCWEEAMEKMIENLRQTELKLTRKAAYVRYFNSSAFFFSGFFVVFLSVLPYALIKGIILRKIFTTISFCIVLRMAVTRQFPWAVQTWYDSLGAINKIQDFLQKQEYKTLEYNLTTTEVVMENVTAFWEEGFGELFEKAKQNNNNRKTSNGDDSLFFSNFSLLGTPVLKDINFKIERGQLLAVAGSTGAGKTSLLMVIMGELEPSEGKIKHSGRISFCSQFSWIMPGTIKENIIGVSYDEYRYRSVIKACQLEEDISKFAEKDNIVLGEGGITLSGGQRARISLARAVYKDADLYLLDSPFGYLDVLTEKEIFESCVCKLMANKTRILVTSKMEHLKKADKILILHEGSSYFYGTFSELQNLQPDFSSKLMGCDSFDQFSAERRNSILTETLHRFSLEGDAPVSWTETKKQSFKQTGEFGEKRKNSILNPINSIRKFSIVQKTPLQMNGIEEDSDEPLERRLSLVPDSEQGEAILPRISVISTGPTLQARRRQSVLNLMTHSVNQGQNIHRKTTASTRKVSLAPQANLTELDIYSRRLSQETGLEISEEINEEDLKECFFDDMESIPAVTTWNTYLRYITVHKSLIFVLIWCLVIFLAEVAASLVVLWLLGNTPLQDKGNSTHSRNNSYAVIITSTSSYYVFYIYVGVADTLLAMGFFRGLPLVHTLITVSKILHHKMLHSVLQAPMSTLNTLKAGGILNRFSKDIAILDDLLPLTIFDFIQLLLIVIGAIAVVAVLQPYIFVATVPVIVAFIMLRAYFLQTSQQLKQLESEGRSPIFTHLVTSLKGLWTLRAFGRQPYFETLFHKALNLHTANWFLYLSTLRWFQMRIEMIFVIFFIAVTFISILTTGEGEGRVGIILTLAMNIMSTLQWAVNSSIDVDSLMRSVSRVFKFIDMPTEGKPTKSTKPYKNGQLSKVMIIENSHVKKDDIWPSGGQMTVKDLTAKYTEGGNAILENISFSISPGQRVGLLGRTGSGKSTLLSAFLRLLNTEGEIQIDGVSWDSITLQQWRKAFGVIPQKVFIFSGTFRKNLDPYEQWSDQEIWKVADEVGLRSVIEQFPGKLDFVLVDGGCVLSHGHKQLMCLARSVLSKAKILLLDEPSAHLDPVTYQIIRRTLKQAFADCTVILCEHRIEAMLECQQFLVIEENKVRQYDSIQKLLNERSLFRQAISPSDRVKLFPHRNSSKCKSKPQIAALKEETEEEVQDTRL
Text: A cell based assay using the primary human bronchial epithelial cells (hBE) was used as a secondary assay to test novel F508delCFTR correctors for their activity on primary hBE cells with F508del/F508del CFTR mutation. The assay used a TECC-24 (Transepithelial Clamp Circuit for 24 wells) instrument that measures the functionality of the mutated channel by measuring the equivalent short circuit current (Ieq) generated by the polarized epithelial cells. The instrument works by measuring the transepithelial potential difference (Vt) and transepithelial resistance (Rt) in an open circuit format, and the Ieq is calculated by using Ohms law (Ieq=Vt/Rt). The assay was run in a 24-well format and all 24-wells were measured at the same time point giving a higher throughput for this assay.
Primary human bronchial epithelial (hBE) cells from F508del/F508delCFTR patients were expanded from 1×10^6 to 250×10^6 cells (Neuberger T, Burton B, Clark H and VanGoor F; Cystic Fibrosis, Methods in Mole Biol 741; eds. Amaral M D and Kunzelmann K, 2011). […]
The % activity measured at each of the 6 test concentrations of the test compound was normalized to the on-plate positive control using the following formula: […]

Chain of F508delCFTR (P13569 with tags, fused parts or gaps DEL508-508): as above

EC50 (F508delCFTR; F508delCFTR cell surface expression, 18-24 hours at 33° C., luminescence readout): 27 nM
Maximum % activity (F508delCFTR; maximum at any tested concentration, normalized to on-plate positive control (3 μM)): 145%
EC50 (F508del/F508del CFTR; 18-24 hours at 37° C., equivalent short circuit current (Ieq), with control potentiator): 13 nM
Maximum % activity (F508del/F508del CFTR; relative to positive control (0.15 μM) coupled with control potentiator = 100%): 96%
SMILES: [2H]c1cc(C(=O)O)cc([2H])c1C1Oc2cc(OC(F)F)c([2H])c([2H])c2C([2H])(NC(=O)C2(c3ccc4c(c3)OC(F)(F)O4)CC2)C1([2H])[2H] [Example 1, 4-[(2R,4R)-4-({[1-(2,2-difluoro-1,3-benzodioxol-5-yl)cyclopropyl]carbonyl}amino)-7-(difluoromethoxy)(3,3,4,5,6-^2H5)-3,4-dihydro-2H-chromen-2-yl](3,5-^2H2)benzoic acid]
